# Results from patent publication US4521537A, “Spiro[2H-1,4-benzodioxepin-3(5H)4'-piperidine and -3'-pyrrolidine] compounds and their use as antihypertensive agents” (Hoechst-Roussel Pharmaceuticals Incorporated, priority 1984, dated 1985).
# Where a name gives a salt, the structure may show the parent alone. Read-outs that look alike come from different tables or passages of the source.
# Columns and labels:
# mice = assay: phenylquinone-induced writhing test in mice (PQW), analgesia; assay type: in vivo, male, CD-1 mice; conditions: Mus musculus; for change in vivo at 20 mg/kg / change in vivo at 5 mg/kg: read-out: PQW % (percent inhibition of writhing); for change in vivo at 5 mg/kg: 5 mg/kg SC; for ED50: read-out: ED50 (PQW)
# Experimental: Compounds of this invention produce analgesia when administered to mammals. A phenylquinone-induced writhing test in mice (PQW) was used as an assay to detect analgesia. The procedure employed was a modification of Siegmund, E., Cadmus, R. and Lu, G: Proc. Soc. Exptl. Bio. Med., 95: 729 (1957). 12.5 mg of phenyl-p-benzoquinone were dissolved in 5 ml of 95% ethanol and q.s. to 100 ml with distilled water and administered to mice (10 ml/kg, i.p.). This produces a characteristic "writhe" which is defined as an inward rotation of one or more feet with twisting and turning of the trunk, drawing in of the abdominal wall, lordosis and arching of the back.
# A total of 28 male, CD-1 mice (18 to 30 grams) were employed for a time response. Animals recived food and water ad libitum. Drugs to be tested were prepared with distilled water and, if insoluble, one drop of a suitable surfactant was added.
# Twenty animals (5/group) were administered the drug 15, 30, 45 and 60 minutes prior to phenylquinone injections. Control animals (2/group) received an equal amount of vehicle. After the administration of phenylquinone the mice were placed separately into one-liter beakers and 5 minutes were allowed to lapse. The mice were then observed for a period of 10 minutes and the number of writhes were recorded for each animal. The formula for computing percent inhibition is: [formula]
# The time period with the greatest percent of inhibition is considered the peak time.
# A dose range is run in the same fashion as a time response except 10 animals per group were tested at the peak time of drug activity. Fifty animals, 4 drug groups, and a vehicle control were employed. Animals were dosed and tested in a randomized manner. An estimated ED50 was calculated by a computer linear regression analysis.
# [1] = test system: spontaneous hypertensive rat; assay: antihypertensive activity, spontaneous hypertensive rat (SHR) test, indirect tail cuff method; assay type: in vivo
# Experimental: Compounds of this invention are useful as antihypertensive agents due to their ability to depress blood pressure in mammals. Antihypertensive activity is measured in the spontaneous hypertensive rat by the indirect tail cuff method described by A. Schwartz, Ed., Methods in Pharmacology, Vol. page 135, Appleton Century Crafts, New York (1971). […] The drop in blood pressure is measured on the third day following administration. The antihypertensive activity is expressed as mm Hg decrease in mean arterial blood pressure.
# [2] = Table III, SC, printed in PQW % column
Compound,"change in vivo at 20 mg/kg (mice; Table II, 20 mg/kg SC)","SHR mm Hg (decrease in mean arterial blood pressure) ([1]; Table II, 50 mg/kg PO)","change in vivo at 20 mg/kg (mice; Table III, 20 mg/kg SC)",further results
"CC1Oc2ccccc2COC12CCN(CC#N)CC2 (centres unmarked) [Example 45, 1'-(Cyanomethyl)-2-methylspiro[2H-1,4-benzodioxepin-3(5H)-4'-piperidine]]",-15%,-29 mm Hg,–,–
"CC1Oc2ccccc2COC12CCN(CCc1ccccc1)CC2 (centres unmarked) [Example 46, 2-Methyl-1'-(2-phenylethyl)-spiro[2H-1,4-benzodioxepin-3(5H)4'-piperidine]hydrochloride]",–,-12 mm Hg,–,change in vivo at 5 mg/kg (mice; Table II): -87%
"CC1Oc2ccccc2COC12CCN(CCO)CC2 (centres unmarked) [Example 48, 1'-(2-Hydroxyethyl)-2-methylspiro[2H-1,4-benzodioxepin-3(5H)4'-piperidine]]",-39%,-23 mm Hg,–,–
"CC1Oc2ccccc2COC12CCN(CCN)CC2 (centres unmarked) [Example 49, 1'-(2-Aminoethyl)-2-methylspiro[2H-1,4-benzodioxepin-3(5H)4'-piperidine]dioxalate]",-85%,-23 mm Hg,–,"ED50 (mice; Table II, SC, computer linear regression, peak time): 4.7 mg/kg"
"CC1Oc2ccccc2COC12CCN(CCCc1noc3cc(F)ccc13)CC2 (centres unmarked) [Example 52, 1'-[3-(6-Fluoro-1,2-benzisoxazol-3-yl)propyl]-2-methylspiro[2H-1,4-benzodioxepin-3(5H)4'-piperidine]maleate]",–,-67 mm Hg,–,change in vivo at 5 mg/kg (mice; Table II): -82%
"Cc1[nH]c2ccccc2c1CCCN1CCC2(CC1)OCc1ccccc1OC2C (centres unmarked) [Example 53, 2-Methyl-1'-[3-(2-methylindol-3-yl)propyl]spiro[2H-1,4-benzodioxepin-3(5H)4'-piperidine]fumarate]",-30%,-32 mm Hg,–,–
"CC1Oc2ccccc2COC12CCN(CCCN)CC2 (centres unmarked) [Example 55, 2-Methyl-1'-(3-aminopropyl)spiro[2H-1,4-benzodioxepin-3(5H)4'-piperidine]dioxalate]",-28%,-28 mm Hg,–,–
"CC1Oc2ccccc2COC12CCN(CCc1ccc([N+](=O)[O-])cc1)CC2 (centres unmarked) [Example 56, 1'-[2-(4-Nitrophenyl)ethyl]2-methylspiro[2H-1,4-benzodioxepin-3(5H)4'piperidine]oxalate]",-30%,-17 mm Hg,–,–
"CC1Oc2ccccc2COC12CCN(CCc1ccc(N)cc1)CC2 (centres unmarked) [Example 57, 1'-[2-(4-Aminophenyl)ethyl]-2-methylspiro[2H-1,4-benzodioxepin-3(5H)4'-piperidine]maleate hydrate]",-99%,-12 mm Hg,–,–
"CC1Oc2ccccc2COC12CCN(CCN1CCOCC1)CC2 (centres unmarked) [Example 59, 1'-[2-(1-Morpholino)ethyl]-2-methylspiro[2H-1,4-benzodioxepin-3(5H)4'-piperidine]dihydrochloride]",-52%,-18 mm Hg,–,–
"CC1Oc2ccccc2COC12CCN(CCC#N)CC2 (centres unmarked) [Example 67, 1'-(2-Cyanoethyl)-2-methylspiro[2H-1,4-benzodioxepin-3(5H)4'-piperidine]oxalate]",-40%,-30 mm Hg,–,–
"CNC(=O)N1CCC2(CC1)OCc1ccccc1OC2C (centres unmarked) [Example 70, N,2-Dimethylspiro[2H-1,4-benzodioxepin-3(5H)4'-piperidine]-1'-carboxamide]",–,–,-35%,"SHR mm Hg (decrease in mean arterial blood pressure) ([1]; Table III, 50 mg/kg PO): -39 mm Hg"
"CCNC(=O)N1CCC2(CC1)OCc1ccccc1OC2C (centres unmarked) [Example 71, N-Ethyl-2-methylspiro[2H-1,4-benzodioxepin-3(5H)4'-piperidine]-1'-carboxamide]",–,–,-46%,"SHR mm Hg (decrease in mean arterial blood pressure) ([1]; Table III, 50 mg/kg PO): -67 mm Hg"
"CCOC(=N)N1CCC2(CC1)OCc1ccccc1OC2C (centres unmarked) [Example 72, 2-Methylspiro[2H-1,4-benzodioxepin-3(5H)4'-piperidine]-1'-carboximidic acid, ethyl ester hydrochloride]",–,–,-51%,"SHR mm Hg (decrease in mean arterial blood pressure) ([1]; Table III, 50 mg/kg PO): -20 mm Hg"
"CC1Oc2c(Cl)cccc2COC12CCN(CCCC(c1ccccc1)c1ccccc1)CC2 (centres unmarked) [Example 74, 1'-(4,4-Diphenylbutyl)-9-chloro-2-methylspiro[2H-1,4-benzodioxepin-3(5H)4'-piperidine]hydrochloride]",–,–,-25%,–
"CC1Oc2ccc(F)cc2COC12CCN(CCCC(c1cccc(F)c1)c1cccc(F)c1)CC2 (centres unmarked) [Example 76, 1'-[4,4-Bis(3-fluorophenyl)butyl]-7-fluoro-2-methylspiro[2H-1,4-benzodioxepin-3(5H)4'-piperidine]hydrochloride]",–,–,-38%,"SHR mm Hg (decrease in mean arterial blood pressure) ([1]; Table III, 0.3 mg/kg PO): -31 mm Hg"
"CC1Oc2ccc(F)cc2COC12CCN(CCCCc1ccc(F)cc1)CC2 (centres unmarked) [Example 77, 1'-[4-(4-Fluorophenyl)butyl]-7-fluoro-2-methylspiro[2H-1,4-benzodioxepin-3(5H)4'-piperidine]hydrochloride]",–,–,–,"change in vivo at 5 mg/kg (mice; Table III): -66%; ED50 (mice; [2]): 4.3 mg/kg; SHR mm Hg (decrease in mean arterial blood pressure) ([1]; Table III, 50 mg/kg PO): -40 mm Hg"
"CC1Oc2ccc(Cl)cc2COC12CCN(CCCCc1ccc(F)cc1)CC2 (centres unmarked) [Example 78, 1'-[4-(4-Fluorophenyl)butyl]-7-chloro-2-methylspiro[2H-1,4-benzodioxepin-3(5H)4'-piperidine]hydrochloride]",–,–,-68%,"ED50 (mice; [2]): 6.8 mg/kg; SHR mm Hg (decrease in mean arterial blood pressure) ([1]; Table III, 50 mg/kg PO): -61 mm Hg"
"CC1Oc2ccc(Cl)cc2COC12CCN(CCCC(c1cccc(F)c1)c1cccc(F)c1)CC2 (centres unmarked) [Example 79, 1'-[4,4-Bis(3-fluorophenyl)butyl]-7-chloro-2-methylspiro[2H-1,4-benzodioxepin-3(5H)4'-piperidine]hydrochloride]",–,–,-91%,"SHR mm Hg (decrease in mean arterial blood pressure) ([1]; Table III, 0.3 mg/kg PO): -27 mm Hg"
"CC(=O)N1CCC2(CC1)OCc1cc([N+](=O)[O-])ccc1OC2C (centres unmarked) [Example 80, 1'-Acetyl-2-methyl-7-nitrospiro[2H-1,4-benzodioxepin-3(5H)4'-piperidine]]",–,–,-22%,"SHR mm Hg (decrease in mean arterial blood pressure) ([1]; Table III, 50 mg/kg PO): -19 mm Hg"
"CC1Oc2ccc([N+](=O)[O-])cc2COC12CCNCC2 (centres unmarked) [Example 81, 2-Methyl-7-nitrospiro[2H-1,4-benzodioxepin-3(5H)4'-piperidine]hydrochloride]",–,–,-80%,–
"CC1Oc2ccc(Cl)cc2COC12CCN(C(c1ccc(F)cc1)c1ccc(F)cc1)CC2 (centres unmarked) [Example 82, 7-Chloro-2-methyl-1'-bis(4-fluorophenyl)methylspiro[2H-1,4-benzodioxepin-3(5H)4'-piperidine]hydrochloride]",–,–,-30%,–
"CC1Oc2ccccc2COC12CCN(CCCCC(c1ccc(F)cc1)c1ccc(F)cc1)CC2 (centres unmarked) [Example 84, 2-Methyl-1'-[5,5-bis(4-fluorophenyl)pentyl]spiro[2H-1,4-benzodioxepin-3(5H)4'-piperidine]hydrochloride]",–,–,-34%,–
"CC1Oc2ccc(Cl)cc2COC12CCN(CCOC(c1ccc(F)cc1)c1ccc(F)cc1)CC2 (centres unmarked) [Example 85, 7-Chloro-1'-[2-(bis(4-fluorophenyl)methoxy)ethyl]-2-methylspiro[2H-1,4-benzodioxepin-3(5H)4'-piperidine]hydrochloride]",–,–,–,"change in vivo at 20 mg/kg (mice; sc): -44%; SHR mm Hg (decrease in mean arterial blood pressure) ([1]; Table III, 50 mg/kg PO): -46 mm Hg"
"CC1Oc2ccccc2COC12CCN(CC(O)COc1ccc(F)cc1)CC2 (centres unmarked) [Example 90, 2-Methyl-1'-[2-hydroxy-3-(4-fluorophenoxy)propyl]spiro[2H-1,4-benzodioxepin-3(5H)4'-piperidine]hydrochloride]",–,–,-99%,–
"COc1ccc2c(c1)c(CC(=O)O)c(C)n2C(=O)c1ccc(Cl)cc1 [Indomethacin, reference compound]",–,–,–,ED50 (mice; po): 0.7 mg/kg
"CCC(=O)O[C@](Cc1ccccc1)(c1ccccc1)[C@H](C)CN(C)C [Propoxyphene, reference compound]",–,–,–,ED50 (mice; sc): 3.9 mg/kg
